Data as given in US10375956B2, “Herbicidally active 2-(substituted-phenyl)-cyclopentane-1,3-dione compounds and derivatives thereof” (Syngenta Limited, priority 2013, dated 2019).

How the values were obtained:
Type in all cases: in vivo
[1] = test system: Alopecurus myosuroides (ALOMY); assay: Test 1 glasshouse assay, pre-emergence herbicidal activity; conditions: 312 h, visual evaluation after 13 days, read-out: Percentage phytotoxicity ALOMY
Method: (§1) Seeds of a variety of test species are sown in standard soil in pots. After cultivation for one day (pre-emergence) or after 8 days cultivation (post-emergence) under controlled conditions in a glasshouse (at 24/16° C., day/night; 14 hours light; 65% humidity), the plants are sprayed with an aqueous spray solution derived from the formulation of the “technical” (i.e. unformulated) active ingredient in acetone/water (50:50) solution containing 0.5% Tween 20 (polyoxyethylene sorbitan monolaurate, CAS Registry Number 9005-64-5). The test plants are then grown on under controlled conditions in a glasshouse (at 24/16° C., day/night; 14 hours light; 65% humidity) and watered twice daily. After 13 days for pre- or post-emergence, the test is evaluated visually, and an assessed percentage phytotoxicity score is given for each herbicidal application on each plant species (where 100%=total damage to plant; 0%=no damage to plant).
(§2) Test plants include the following: Abutilon theophrasti (ABUTH), Amaranthus retroflexus (AMARE): these are dicotyledonous (broadleaved) weeds. Setaria faberi (SETFA), Alopecurus myosuroides (ALOMY), Echinochloa crus-galli (ECHCG): these are grassy monocotyledonous weeds. Also: Zea mays (ZEAMX, corn/maize), which can be a grassy weed (“volunteer” corn) in some circumstances.

[2] = test system: Echinochloa crus-galli (ECHCG); assay: as above; conditions: 312 h, visual evaluation after 13 days, read-out: Percentage phytotoxicity ECHCG
Method: as §1, §2

[3] = test system: Alopecurus myosuroides (ALOMY); assay: Test 1 glasshouse assay, post-emergence herbicidal activity; conditions: 312 h, after 13 days, read-out: Percentage phytotoxicity ALOMY
Method: as §1
(§3) Test plants include the following: Abutilon theophrasti (ABUTH) and Amaranthus retroflexus (AMARE); these are all dicotyledonous (broadleaved) weeds. Setaria faberi (SETFA), Alopecurus myosuroides (ALOMY), and Echinochloa crus-galli (ECHCG); these are all grassy monocotyledonous weeds. Also: Zea mays (ZEAMX, corn/maize), which can be a grassy weed (“volunteer” corn) in some circumstances.
(§4) Lolium perenne (LOLPE), Alopecurus myosuroides (ALOMY), Echinochloa crus-galli (ECHCG), and Avena fatua (AVEFA); these are all grassy monocotyledonous weeds. Cool climate crop plant: Triticum aestivum (TRZAW, winter wheat).

[4] = test system: Echinochloa crus-galli (ECHCG); assay: as above; conditions: 312 h, after 13 days, read-out: Percentage phytotoxicity ECHCG
Method: as §1, §3, §4

Avena fatua (AVEFA) = assay: as above; conditions: 312 h, post-emergence (Example 1B Table 2), after 13 days, read-out: Percentage phytotoxicity AVEFA
Method: as §1, §4

Lolium perenne (LOLPE) = assay: as above; conditions: 312 h, post-emergence (Example 1B Table 2), after 13 days, read-out: Percentage phytotoxicity LOLPE
Method: as §1, §4

[5] = test system: Triticum aestivum (TRZAW, winter wheat); assay: as above; conditions: 312 h, post-emergence (Example 1B Table 2), after 13 days, crop plant, read-out: Percentage phytotoxicity TRZAW
Method: as §1, §4

[6] = test system: Amaranthus retroflexus (AMARE); assay: as above; conditions: 312 h, post-emergence (Example 1B Table 1), after 13 days, read-out: Percentage phytotoxicity AMARE
Method: as §1, §3

Setaria faberi (SETFA) [7] = assay: as above; conditions: 312 h, post-emergence (Example 1B Table 1), after 13 days, read-out: Percentage phytotoxicity SETFA
Method: as §1, §3

[8] = test system: Abutilon theophrasti (ABUTH); assay: Test 1 glasshouse assay, pre-emergence herbicidal activity; conditions: 312 h, visual evaluation after 13 days, read-out: Percentage phytotoxicity ABUTH
Method: as §1, §2

[9] = test system: Amaranthus retroflexus (AMARE); assay: as above; conditions: 312 h, visual evaluation after 13 days, read-out: Percentage phytotoxicity AMARE
Method: as §1, §2

Setaria faberi (SETFA) [10] = assay: as above; conditions: 312 h, visual evaluation after 13 days, read-out: Percentage phytotoxicity SETFA
Method: as §1, §2

[11] = test system: Zea mays (ZEAMX, corn/maize); assay: as above; conditions: 312 h, visual evaluation after 13 days, read-out: Percentage phytotoxicity ZEAMX
Method: as §1, §2

[12] = test system: Abutilon theophrasti (ABUTH); assay: Test 1 glasshouse assay, post-emergence herbicidal activity; conditions: 312 h, post-emergence (Example 1B Table 1), after 13 days, read-out: Percentage phytotoxicity ABUTH
Method: as §1, §3

[13] = test system: Zea mays (ZEAMX, corn/maize); assay: as above; conditions: 312 h, post-emergence (Example 1B Table 1), after 13 days, read-out: Percentage phytotoxicity ZEAMX
Method: as §1, §3

[14] = post-emergence (Example 1B Table 2)
[15] = post-emergence (Example 1B Table 1)
[16] = post-emergence (Example 1B Table 1), 8 g/ha

| SMILES | pest or weed control at 250 g/ha [1] [%] | pest or weed control at 250 g/ha [2] [%] | pest or weed control at 250 g/ha [3, 14] [%] | pest or weed control at 250 g/ha [4, 14] [%] | pest or weed control at 250 g/ha (Avena fatua (AVEFA)) [%] | pest or weed control at 250 g/ha (Lolium perenne (LOLPE)) [%] | plant injury at 250 g/ha [5] [%] | pest or weed control at 62.5 g/ha [3, 14] [%] | pest or weed control at 62.5 g/ha [4, 14] [%] | pest or weed control at 62.5 g/ha (Avena fatua (AVEFA)) [%] | pest or weed control at 62.5 g/ha (Lolium perenne (LOLPE)) [%] | plant injury at 62.5 g/ha [5] [%] | pest or weed control at 250 g/ha [6] [%] | pest or weed control at 250 g/ha (Setaria faberi (SETFA) [7]) [%] | pest or weed control at 250 g/ha [3, 15] [%] | pest or weed control at 250 g/ha [4, 15] [%] | pest or weed control at 250 g/ha [8] [%] | pest or weed control at 250 g/ha [9] [%] | pest or weed control at 250 g/ha [12] [%] | pest or weed control at 250 g/ha [13] [%] | further results |
| --- | --- | --- | --- | --- | --- | --- | --- | --- | --- | --- | --- | --- | --- | --- | --- | --- | --- | --- | --- | --- | --- |
| C#CCC1CC(=O)C(c2c(Br)cc(C)cc2Br)C1=O (centres unmarked) [Compound A26] | 30 | 80 | 60 | 100 | 70 | 100 | 10 | – | – | – | – | – | – | – | – | – | – | – | – | – | – |
| CC#CCC1CC(=O)C(c2c(C)cc(C)cc2C)C1=O (centres unmarked) [Compound A24] | 100 | 100 | 80 | 80 | 50 | 80 | 0 | 60 | 70 | 60 | 70 | 0 | – | – | – | – | – | – | – | – | – |
| C#CCC1CC(=O)C(c2ccc(-c3ccc(Cl)cc3)cc2C)C1=O (centres unmarked) [Compound A43] | – | – | – | – | – | – | – | – | – | – | – | – | 0 | 70 | 20 | 20 | – | – | – | – | – |
| C#CCC1CC(=O)C(c2cc(-c3ccc(Cl)cc3)ccc2C)C1=O (centres unmarked) [Compound A16] | 90 | 90 | – | – | – | – | – | – | – | – | – | – | 60 | 90 | 90 | 100 | 40 | 40 | 40 | 60 | pest or weed control at 250 g/ha (Setaria faberi (SETFA) [10]): 90%; pest or weed control at 250 g/ha [11]: 80%; pest or weed control at 30 g/ha [12]: 40%; pest or weed control at 30 g/ha [6]: 0%; pest or weed control at 30 g/ha (Setaria faberi (SETFA) [7]): 80%; pest or weed control at 30 g/ha [13]: 80%; pest or weed control at 30 g/ha [3, 15]: 70%; pest or weed control at 30 g/ha [4, 15]: 40% |
| C#CCC1CC(=O)C(c2c(Cl)cccc2Cl)C1=O (centres unmarked) [Compound A29] | 70 | 90 | 80 | 100 | 60 | 80 | 80 | 60 | 90 | 0 | 60 | 60 | – | – | – | – | – | – | – | – | – |
| C#CCC1CC(=O)C(c2cc(-c3ccc(Cl)cn3)ccc2C)C1=O (centres unmarked) [Compound A17] | 70 | 70 | – | – | – | – | – | – | – | – | – | – | 50 | 80 | 70 | 80 | 10 | 10 | 10 | 60 | pest or weed control at 250 g/ha (Setaria faberi (SETFA) [10]): 70%; pest or weed control at 250 g/ha [11]: 60% |
| C#CCC1CC(=O)C(c2c(F)cc(-c3ccc(F)cc3)cc2Cl)C1=O (centres unmarked) [Compound A4] | 90 | 100 | – | – | – | – | – | – | – | – | – | – | 80 | 100 | 100 | 100 | 0 | 80 | 80 | 100 | pest or weed control at 250 g/ha (Setaria faberi (SETFA) [10]): 100%; pest or weed control at 250 g/ha [11]: 100%; pest or weed control at 30 g/ha [12]: 40%; pest or weed control at 30 g/ha [6]: 60%; pest or weed control at 30 g/ha (Setaria faberi (SETFA) [7]): 100%; pest or weed control at 30 g/ha [13]: 100%; pest or weed control at 30 g/ha [3, 15]: 70%; pest or weed control at 30 g/ha [4, 15]: 90% |
| C#CCC1C(=O)C(c2cc(-c3ccc(Cl)cc3)ccc2C)C(=O)C1CC#C (centres unmarked) [Compound A44] | – | – | – | – | – | – | – | – | – | – | – | – | 0 | 0 | 0 | 0 | – | – | 10 | 20 | pest or weed control at 8 g/ha ([12]; 8 g/ha): 0%; pest or weed control at 8 g/ha ([6]; 8 g/ha): 0%; pest or weed control at 8 g/ha (Setaria faberi (SETFA) [7]; 8 g/ha): 0%; pest or weed control at 8 g/ha ([13]; 8 g/ha): 30%; pest or weed control at 8 g/ha [3, 16]: 0%; pest or weed control at 8 g/ha [4, 16]: 0% |
| C#Cc1cc(C)c(C2C(=O)CC(CC#CC)C2=O)c(C)c1 (centres unmarked) [Compound A28] | 90 | 100 | 100 | 100 | 90 | 90 | 80 | 70 | 90 | 80 | 80 | 30 | – | – | – | – | – | – | – | – | – |
| C#CCC1CC(=O)C(c2c(C)cc(C#C)cc2C)C1=O (centres unmarked) [Compound A27] | 100 | 100 | 100 | 100 | 100 | 100 | 90 | 90 | 90 | 90 | 80 | 80 | – | – | – | – | – | – | – | – | – |
